Reference: ChEMBL document CHEMBL4390708, “Design, synthesis, in-silico studies and biological screening of quinazolinone analogues as potential antibacterial agents against MRSA” (2019)
Values after ≈ are worked out from the molar mass of the structure shown.

What was measured:
Assay type in all cases: functional
[1] = system: Staphylococcus aureus; assay: Antibacterial activity against methicillin-resistant Staphylococcus aureus assessed as reduction in bacterial cell viability incubated for 20 to 24 hrs by REMA method
[2] = system: Staphylococcus aureus; assay: Antibacterial activity against Staphylococcus aureus assessed as reduction in bacterial cell viability incubated for 20 to 24 hrs by REMA method
[3] = system: Escherichia coli; assay: Antibacterial activity against Escherichia coli assessed as reduction in bacterial cell viability incubated for 20 to 24 hrs by REMA method

Structure (SMILES) | MIC [1] | MIC [2] | MIC [3]
O=C(Nc1cccc(-n2c(/C=C/c3ccc(F)cc3)nc3ccccc3c2=O)c1)c1cccs1 | 31.2 µg/mL (≈ 66.8 µM) | 31.2 µg/mL (≈ 66.8 µM) | 62.5 µg/mL (≈ 134 µM)
Cc1ccccc1C(=O)Nc1cccc(-n2c(/C=C/c3ccc(C#N)cc3)nc3ccccc3c2=O)c1 | 62.5 µg/mL (≈ 130 µM) | 62.5 µg/mL (≈ 130 µM) | 62.5 µg/mL (≈ 130 µM)
COc1ccc(C(=O)Nc2cccc(-n3c(/C=C/c4ccc(F)cc4)nc4ccccc4c3=O)c2)cc1OC | 62.5 µg/mL (≈ 120 µM) | 62.5 µg/mL (≈ 120 µM) | 62.5 µg/mL (≈ 120 µM)
O=C(Nc1cccc(-n2c(/C=C/c3ccc(F)cc3)nc3ccccc3c2=O)c1)c1ccccc1 | 62.5 µg/mL (≈ 135 µM) | 125 µg/mL (≈ 271 µM) | 62.5 µg/mL (≈ 135 µM)
COc1ccc(CC(=O)Nc2cccc(-n3c(/C=C/c4ccc(Cl)cc4)nc4ccccc4c3=O)c2)cc1 | 31.2 µg/mL (≈ 59.9 µM) | 15.6 µg/mL (≈ 29.9 µM) | 62.5 µg/mL (≈ 120 µM)
N#Cc1ccc(/C=C/c2nc3ccccc3c(=O)n2-c2cccc(NC(=O)c3ccccc3)c2)cc1 | 62.5 µg/mL (≈ 133 µM) | 62.5 µg/mL (≈ 133 µM) | 62.5 µg/mL (≈ 133 µM)
Cc1ccccc1C(=O)Nc1cccc(-n2c(/C=C/c3ccc(F)cc3)nc3ccccc3c2=O)c1 | 62.5 µg/mL (≈ 131 µM) | 125 µg/mL (≈ 263 µM) | 62.5 µg/mL (≈ 131 µM)
COc1ccc(CC(=O)Nc2cccc(-n3c(/C=C/c4ccc(F)cc4)nc4ccccc4c3=O)c2)cc1 | 62.5 µg/mL (≈ 124 µM) | 62.5 µg/mL (≈ 124 µM) | 62.5 µg/mL (≈ 124 µM)
N#Cc1ccc(/C=C/c2nc3ccccc3c(=O)n2-c2cccc(NC(=O)c3cccs3)c2)cc1 | 62.5 µg/mL (≈ 132 µM) | 62.5 µg/mL (≈ 132 µM) | 62.5 µg/mL (≈ 132 µM)
COc1ccc(C(=O)Nc2cccc(-n3c(/C=C/c4ccc(Cl)cc4)nc4ccccc4c3=O)c2)cc1OC | 62.5 µg/mL (≈ 116 µM) | 62.5 µg/mL (≈ 116 µM) | 62.5 µg/mL (≈ 116 µM)
NC[C@H]1O[C@H](O[C@H]2[C@H](O)[C@@H](O[C@H]3O[C@H](CO)[C@@H](O)[C@H](N)[C@H]3O)[C@H](N)C[C@@H]2N)[C@H](O)[C@@H](O)[C@@H]1O [KANAMYCIN] |  | 7.8 µg/mL (≈ 16.1 µM) | 7.8 µg/mL (≈ 16.1 µM)
CC(=O)NC[C@H]1CN(c2ccc(N3CCOCC3)c(F)c2)C(=O)O1 [LINEZOLID] | 7.8 µg/mL (≈ 23.1 µM) |  | 
CN[C@@H]1[C@H](O[C@H]2[C@H](O[C@H]3[C@H](O)[C@@H](O)[C@H](N=C(N)N)[C@@H](O)[C@@H]3N=C(N)N)O[C@@H](C)[C@]2(O)C=O)O[C@@H](CO)[C@H](O)[C@H]1O [STREPTOMYCIN] |  | 7.8 µg/mL (≈ 13.4 µM) | 7.8 µg/mL (≈ 13.4 µM)
